Data published in ChEMBL document CHEMBL1201862, “PubChem BioAssay data set” (2004).
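Five compound concentrations were applied to cells in 96-well plates for 48 hours; endpoints were derived by simple linear interpolation of the resulting dose-response curve. GI50 marks 50% less growth.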 Activity calls are given as the source filed them. Cut-off read from the data, not from the text of the source: active = GI50 up to about 1.1 µM and inactive = higher.

Columns and labels:
Experiment in all cases: inhibition of tumour cell growth, NCI panel, 48 h
[1] = tested on: MDA-MB-231
[2] = tested on: CCRF-CEM
[3] = tested on: 786-0
[4] = tested on: SN12C
[5] = tested on: OVCAR-5
[6] = tested on: KM12
[7] = tested on: MDA-N
[8] = tested on: SK-MEL-5
[9] = tested on: IGROV-1
[10] = tested on: NCI-H522
[11] = tested on: NCI-H226
[12] = tested on: EKVX
[13] = tested on: MOLT-4
[14] = tested on: SNB-75
[15] = tested on: NCI-H23
[16] = tested on: SF-268
[17] = tested on: HL-60
[18] = tested on: K562
[19] = tested on: M14
[20] = tested on: MDA-MB-435
[21] = tested on: MCF7
[22] = tested on: UACC-257
[23] = tested on: HT-29
[24] = tested on: DU-145
[25] = tested on: UACC-62
[26] = tested on: CAKI-1
[27] = tested on: A549
[28] = tested on: SF-539
[29] = tested on: PC-3
[30] = tested on: Hs-578T
[31] = tested on: HOP-62
[32] = tested on: RXF 393
[33] = tested on: LOX IMVI
[34] = tested on: NCI/ADR-RES
[35] = tested on: RPMI-8226
[36] = tested on: HOP-92
[37] = tested on: SR
[38] = tested on: SK-MEL-28
[39] = tested on: T47D
[40] = tested on: HCT-15
[41] = tested on: SK-OV-3
[42] = tested on: OVCAR-3
[43] = tested on: NCI-H460
[44] = tested on: BT-549
[45] = tested on: SF-295
[46] = tested on: HCT-116
[47] = tested on: TK-10
[48] = tested on: UO-31
[49] = tested on: OVCAR-8
[50] = tested on: SNB-19
[51] = tested on: A498
[52] = tested on: Malme-3M
[53] = tested on: SK-MEL-2
[54] = tested on: U-251
[55] = tested on: SW-620
[56] = tested on: COLO 205
[57] = tested on: ACHN
[58] = tested on: OVCAR-4

With CCOC(=O)CCC1(C(=O)O[C@@H]2C[C@H](C)CC[C@H]2C(C)C)CCCCC1=O (stereo partly drawn) the GI50 [1] was > 100 µM (inactive), the GI50 [2] was 46.1 µM (inactive) and the GI50 [3] was > 100 µM (inactive). For the same compound, the GI50 [4] was > 100 µM (inactive), the GI50 [5] was > 100 µM (inactive) and the GI50 [6] was 50.4 µM (inactive). The GI50 [7] was 79.4 µM (inactive), the GI50 [8] was 31.1 µM (inactive) and the GI50 [9] was > 100 µM (inactive). For the same compound, the GI50 [10] was 67.6 µM (inactive), the GI50 [11] was > 100 µM (inactive) and the GI50 [12] was 41.3 µM (inactive). The GI50 [13] was 29.2 µM (inactive), the GI50 [14] was 42 µM (inactive) and the GI50 [15] was 74.8 µM (inactive). For the same compound, the GI50 [16] was > 100 µM (inactive), the GI50 [17] was 18.2 µM (inactive) and the GI50 [18] was 28.1 µM (inactive). For the same compound, the GI50 [19] was 56.5 µM (inactive), the GI50 [20] was 74.1 µM (inactive) and the GI50 [21] was 58.6 µM (inactive). The GI50 [22] was 23.3 µM (inactive), the GI50 [23] was 43.3 µM (inactive) and the GI50 [24] was > 100 µM (inactive). The GI50 [25] was 94.6 µM (inactive), the GI50 [26] was 40.7 µM (inactive) and the GI50 [27] was 55.3 µM (inactive). For the same compound, the GI50 [28] was > 100 µM (inactive), the GI50 [29] was 39.3 µM (inactive) and the GI50 [30] was > 100 µM (inactive). The GI50 [31] was > 100 µM (inactive), the GI50 [32] was 55.7 µM (inactive) and the GI50 [33] was > 100 µM (inactive). The GI50 [34] was 55.2 µM (inactive), the GI50 [35] was 28.7 µM (inactive) and the GI50 [36] was 52.4 µM (inactive). The GI50 [37] was 41.2 µM (inactive), the GI50 [38] was 74 µM (inactive) and the GI50 [39] was 34.8 µM (inactive). For the same compound, the GI50 [40] was 41.7 µM, the GI50 [41] was > 100 µM (inactive) and the GI50 [42] was 45.8 µM (inactive). The GI50 [43] was 36.6 µM (inactive), the GI50 [44] was > 100 µM (inactive) and the GI50 [45] was 65.8 µM (inactive). The GI50 [46] was 41.7 µM (inactive), the GI50 [47] was 56.4 µM (inactive) and the GI50 [48] was > 100 µM (inactive). For the same compound, the GI50 [49] was > 100 µM (inactive), the GI50 [50] was > 100 µM (inactive) and the GI50 [51] was > 100 µM (inactive). The GI50 [52] was > 100 µM (inactive), the GI50 [53] was > 100 µM (inactive) and the GI50 [54] was 63.2 µM (inactive). The GI50 [55] was > 100 µM (inactive), the GI50 [56] was 65 µM (inactive) and the GI50 [57] was 74.8 µM (inactive). For the same compound, the GI50 [58] was 61.2 µM (inactive).
